In patent publication US7432307B2, “Modulators of retinol-retinol binding protein (RBP)-transthyretin (TTR) complex formation” (Sirion Therapeutics, Inc., priority 2004, dated 2008):
“Also recorded” adds a separate entry of the source.

Legend:
retinol-RBP-TTR complex = target: T1, retinol-RBP-TTR complex (Homo sapiens, UniProt P02753); experiment: High-throughput FRET assay for detection of RBP/TTR interaction (Alexa430-TTR); format: binding; settings: for inhibition of RBP-TTR interaction in high throughput assay: 384-well format, varied concentrations 0-4 μM, conditions of Example 7
T1 construct: purchased Sigma Chemical Co. (TTR only)
Source text: Reduction of serum retinol and RBP are correlated with concomitant reductions in toxic lipofliscin fluorophores. Because compounds that affect RBP-TTR interaction will directly affect fluorophore levels in the eye, a high-throughput screen for small molecules which prevent interaction of RBP with TTR was developed. This screen employs probe-labeled forms of RBP and TTR which participate in a unique fluorescence resonance energy transfer (FRET) event when complexed. Compounds which interfere with RBP-TTR interaction prevent FRET. […] The sample is incubated at 37° C. for 30 min and then illuminated with 330 nm light. The emission spectra are shown in the range of 400-600 nm. HPR binds to RBP and prevents interaction with TTR, and here this property of HPR is utilized here to validate the ability of this screen to detect inhibition of RBP-TTR interaction. […] Additionally, the design of this assay permits discrimination between compounds which interact with RBP versus those which interact with TTR. Thus, by using two distinct excitation energies (280 nm and 330 nm, for protein and retinol, respectively) and implementing simultaneous monitoring of the retinol and TTR-probe fluorescence, the “target” of a presumptive small molecule can be easily determined.
In order to facilitate screening of large numbers of test compounds, the RBP-TTR assay has been adapted to a 384-well plate format. This transition required re-evaluation of the reagent concentrations and minimal assay volume for maintaining solubility and detection sensitivity. Under the 384-well plate format, the assay can be efficiently performed in a 50 μl volume using 0.5 μM apo-RBP, 0.5 μM TTR, 2-8 μM test compound and 1 μM retinol. The microplate with minimal fluorescence background, best optical clarity and most appropriate well design was determined to be Corning's model #3711.
Accordingly, HPR was employed at varied concentrations (from 0-4 μM), using the conditions specified in Example 7, to evaluate the high throughput assay.
The mechanism of action underlying this effect can be explained by the disruption of RBP-TTR interactions. In order to explore this possibility and to further validate the RBP-TTR screen, the effects of all-trans retinoic and 13-cis retinoic acid, using the conditions the conditions specified for analysis of HPR, were examined.

serum retinol and RBP = settings: cited from earlier work; for reduction in circulating RBP and circulating retinol in vivo: literature (several investigators; Berni et al. 1993)
RBP-TTR interaction = RBP-TTR interaction (Homo sapiens, UniProt P02753); settings: literature (Malpeli et al.; Holven et al.; Radu et al.); cited from earlier work
ABCA4 null mutant mice = experiment: HPR administered to ABCA4 null mutant mice for 28 days; serum retinol, ocular retinoids and A2E; format: in vivo
Method: In order to further explore the role of HPR in the visual cycle, the in vivo effects of HPR in mice have been examined. Thus, HPR was administered to ABCA4 null mutant mice (5-20 mg/kg, i.p. in DMSO) for periods of 28 days. Control mice received only the DMSO vehicle. At the end of the treatment period, the concentrations of retinol and HPR in serum and retinoid content in ocular tissues was measured. […] Thus, the calculated percent reduction for each of the measured retinoids, and A2E, was nearly identical (see FIG. 6). […] If systemically-administered HPR inhibits ocular LRAT, then reduction of ocular retinoids and A2E should exceed the reduction in serum retinol.
Genetic crosses of RBP4^−/− mice with ABCA4^−/− mice was undertaken to examine the role of RBP in mediation of retinol levels in serum and ocular tissue.

LRAT = target: T2, LRAT (Homo sapiens, UniProt O95237); experiment: In vitro analyses of LRAT activity; format: biochemical; settings: HPR pre-incubated with enzyme source material
T2 sequence (O95237 1-230): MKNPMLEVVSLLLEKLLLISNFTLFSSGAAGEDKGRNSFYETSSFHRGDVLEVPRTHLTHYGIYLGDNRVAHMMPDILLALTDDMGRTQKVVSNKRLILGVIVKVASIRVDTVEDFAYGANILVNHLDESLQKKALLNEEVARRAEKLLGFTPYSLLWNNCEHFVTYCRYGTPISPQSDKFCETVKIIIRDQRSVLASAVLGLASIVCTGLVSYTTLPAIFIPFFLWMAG

[1] = HPR administered to wild type mice for 5 days, illumination, then retinoids in serum and ocular tissue; format: in vivo; settings: mouse, ocular tissue, ip, 20 mg/kg i.p. in DMSO, read-out: HPR accumulation within ocular tissues during the treatment period
Method: In order to ensure that the observed effects of HPR in ABCA4 null mice were not due to the genetic mutation, HPR (20 mg/kg, i.p. in DMSO) was administered to wild type mice for 5 days. Control mice received only the DMSO vehicle. On the final day of HPR treatment, the mice were exposed to constant illumination (1000 lux for 10 min) order “stimulate” the visual cycle to generate visual chromophore. Immediately following the illumination period, the animals were sacrificed and the concentrations of retinoids in serum and ocular tissue were determined. […] As in the previous study, HPR caused a significant reduction in serum retinol (˜55%), ocular retinol (˜40%) and ocular retinal (˜30%). Although HPR did accumulate within ocular tissues during the treatment period (˜5 μM), no effect on LRAT or Rpe65/isomerase activities was observed.

[2] = 5-20 mg/kg i.p. in DMSO, 28 days

retinol and TTR-probe fluorescence (loss of complexation) (retinol-RBP-TTR complex; 1 μM HPR, 0.5 μM unlabeled RBP + 0.5 μM Alexa430-TTR, 37° C., 30 min, 330 nm excitation)	LRAT activity in vitro (LRAT)	concentration at 5 days [1] [µM]	Structure (SMILES)	inhibition of RBP-TTR interaction in high throughput assay (retinol-RBP-TTR complex)	reduction in circulating RBP and circulating retinol in vivo (serum retinol and RBP)	interaction of TTR with RBP in vitro (RBP-TTR interaction)	reductions in serum retinol and RBP (serum retinol and RBP; literature (Formelli et al.; Torrisi et al.))	reductions in A2E (ABCA4 null mutant mice; [2])	reductions in ocular retinoids (ABCA4 null mutant mice; [2])	reductions in serum retinol as a function of increasing serum HPR (ABCA4 null mutant mice; [2])	effect on visual cycle proteins (e.g., LRAT) when administered systemically (ABCA4 null mutant mice; systemic administration)
–	–	–	CC1=C(/C=C/C(C)=C/C=C/C(C)=C/C(=O)O)C(C)(C)CCC1 [all-trans retinoic acid, all-trans-retinoic acid]	entirely consistent with the in vivo data	observed in vivo	–	–	–	–	–	–
significantly reduced	inhibition of LRAT activity	~5	CC1=C(/C=C/C(C)=C/C=C/C(C)=C/C(=O)Nc2ccc(O)cc2)C(C)(C)CCC1 [HPR, N-(4-hydroxyphenyl)retinamide]	inhibit RBP-TTR interaction	established in vivo	interferes with the normal interaction of TTR with RBP; also recorded: effective inhibitor	profound reductions	commensurate reductions	commensurate reductions	Profound reductions	limited effect
–	–	–	CC1=C(/C=C/C(C)=C/C=C/C(C)=C\C(=O)O)C(C)(C)CCC1 [13-cis retinoic acid, 13-cis-retinoic acid]	entirely consistent with the in vivo data	observed in vivo	–	–	–	–	–	–
